Columns and labels:
Test in all cases: Intracellular Ca2+ measurement (fura-2), T-REx-293 cells stably transfected
Type in all cases: cell-based
[1] = target: T1, E824V mPIEZO1 (Mus musculus, UniProt E2JF22, E824V); conditions: normalized to the WT Yoda1 maximum response
T1 construct: expressed in transfected cells
Procedure: (§1) T-REx-293 cell line was transfected with pcDNA4/TO-mPIEZO1 constructs using Lipofectamine 2000 (Invitrogen) as above and treated with 200 μg.mL^−1 zeocin (InvivoGen) to select for stably transfected cells. At least two strongly expressing clonal cell lines were established and tested for each variant. All cell lines were maintained in Dulbecco’s Modified Eagle’s medium (Invitrogen) supplemented with 10% heat-inactivated fetal calf serum (Sigma-Aldrich), penicillin (50 units.mL^−1) and streptomycin (0.5 mg.mL^−1) (Sigma-Aldrich) and grown at 37°C in a humidified 5% CO2 incubator.
(§2) For intracellular Ca^2+ assays, cells were plated at 80–90% confluence in 96-well plates 24 h prior to recordings (6–8 × 10^4 cells per well). […] Cells were washed with SBS and incubated at room temperature for 20 min prior to recordings. Equal volumes of 2x concentrated compounds were injected to test for acute channel activation. Pre-incubation with compounds occurred during the 20 min prior to recordings. To expose cell membranes to hypo-osmolality, an equal volume of hypotonic SBS (containing only 35 mM NaCl) was injected onto the cells. Measurements were made on a fluorescence plate reader (Flexstation III, Molecular Devices) at room temperature (21 ± 2°C). Fura-2 was excited at 340 nm and 380 nm and emitted light collected at 510 nm, with measurements shown as the change in fluorescence (F) ratio (ΔF340/380).
(§3) KC41 (Dooku1) was prepared as described.[28] All purchased chemicals and solvents were used without further purification unless otherwise stated. All compounds were at least 95% pure by 1H NMR. 1H Nuclear Magnetic Resonance spectra were recorded at 500 MHz using a Bruker DRX 500 instrument or at 400 MHz using a Bruker DPX 400. 1H spectra are referenced based on the residual proton in the solvent (e.g., the CHCl3, 0.01% in 99.99% CDCl3). Coupling constants (J) are reported to the nearest 0.1 Hz. 13C NMR spectra were recorded at 125 MHz on 500 MHz spectrometers or at 100 MHz on 400 MHz spectrometers. LC-MS was performed on a Bruker Daltronics running a gradient of increasing acetonitrile (5–95%) in H2O both containing 0.1% formic acid at 1 mL.min^−1, on a short path C18 reverse phase column, detecting compounds with both a diode array detector and a Bruker mass spectrum analyser. HRMS was performed on a Bruker Daltonics micrOTOF using positive electrospray ionisation (ES+). Automated column chromatograph was carried out using a Biotage Isolera Four, using either Sfär Silica D or KP-Silica cartridges. HPLC was performed on an Agilent 1290 Infinity Series equipped with a UV detector and Hyperprep C18 reverse phase column. Key to NMR abbreviations: s (singlet), br s (broad singlet) d (doublet), dd (doublet of doublets), ddd (doublet of doublets of doublets), t (triplet), dt (doublet of triples), q (quartet), m (multiplet), ap. t (apparent triplet). For experiments, Yoda1 and its analogues were prepared as 10 mM stock solutions in 100% dimethyl sulfoxide (DMSO) before serial dilution in DMSO and final dilution in aqueous solution. Cells were exposed to 0.1% DMSO for all concentrations of the compounds from 0 to 10 μM.

[2] = target: T2, WT mPIEZO1 (Mus musculus, UniProt E2JF22); conditions: 1.5 min exposure; fitted Hill equation
T2 construct: expressed in transfected cells
Procedure: as §1, §2, §3

[3] = target: T3, R2351Q mPIEZO1 (Mus musculus, UniProt E2JF22, R2351Q); conditions: for Mean (Ca2+ signal time course, Figure 4f) / Mean (concentration-response, Figure 4g): R2351Q
T3 construct: expressed in transfected cells
Procedure: as §1, §2, §3

[4] = target: T4, G1994D mPIEZO1 (Mus musculus, UniProt E2JF22, G1994D); conditions: for Mean (concentration-response, Figure 5g): G1994D
T4 construct: expressed in transfected cells
Procedure: as §1, §2, §3

T4 sequence (E2JF22 whole entry G1994D): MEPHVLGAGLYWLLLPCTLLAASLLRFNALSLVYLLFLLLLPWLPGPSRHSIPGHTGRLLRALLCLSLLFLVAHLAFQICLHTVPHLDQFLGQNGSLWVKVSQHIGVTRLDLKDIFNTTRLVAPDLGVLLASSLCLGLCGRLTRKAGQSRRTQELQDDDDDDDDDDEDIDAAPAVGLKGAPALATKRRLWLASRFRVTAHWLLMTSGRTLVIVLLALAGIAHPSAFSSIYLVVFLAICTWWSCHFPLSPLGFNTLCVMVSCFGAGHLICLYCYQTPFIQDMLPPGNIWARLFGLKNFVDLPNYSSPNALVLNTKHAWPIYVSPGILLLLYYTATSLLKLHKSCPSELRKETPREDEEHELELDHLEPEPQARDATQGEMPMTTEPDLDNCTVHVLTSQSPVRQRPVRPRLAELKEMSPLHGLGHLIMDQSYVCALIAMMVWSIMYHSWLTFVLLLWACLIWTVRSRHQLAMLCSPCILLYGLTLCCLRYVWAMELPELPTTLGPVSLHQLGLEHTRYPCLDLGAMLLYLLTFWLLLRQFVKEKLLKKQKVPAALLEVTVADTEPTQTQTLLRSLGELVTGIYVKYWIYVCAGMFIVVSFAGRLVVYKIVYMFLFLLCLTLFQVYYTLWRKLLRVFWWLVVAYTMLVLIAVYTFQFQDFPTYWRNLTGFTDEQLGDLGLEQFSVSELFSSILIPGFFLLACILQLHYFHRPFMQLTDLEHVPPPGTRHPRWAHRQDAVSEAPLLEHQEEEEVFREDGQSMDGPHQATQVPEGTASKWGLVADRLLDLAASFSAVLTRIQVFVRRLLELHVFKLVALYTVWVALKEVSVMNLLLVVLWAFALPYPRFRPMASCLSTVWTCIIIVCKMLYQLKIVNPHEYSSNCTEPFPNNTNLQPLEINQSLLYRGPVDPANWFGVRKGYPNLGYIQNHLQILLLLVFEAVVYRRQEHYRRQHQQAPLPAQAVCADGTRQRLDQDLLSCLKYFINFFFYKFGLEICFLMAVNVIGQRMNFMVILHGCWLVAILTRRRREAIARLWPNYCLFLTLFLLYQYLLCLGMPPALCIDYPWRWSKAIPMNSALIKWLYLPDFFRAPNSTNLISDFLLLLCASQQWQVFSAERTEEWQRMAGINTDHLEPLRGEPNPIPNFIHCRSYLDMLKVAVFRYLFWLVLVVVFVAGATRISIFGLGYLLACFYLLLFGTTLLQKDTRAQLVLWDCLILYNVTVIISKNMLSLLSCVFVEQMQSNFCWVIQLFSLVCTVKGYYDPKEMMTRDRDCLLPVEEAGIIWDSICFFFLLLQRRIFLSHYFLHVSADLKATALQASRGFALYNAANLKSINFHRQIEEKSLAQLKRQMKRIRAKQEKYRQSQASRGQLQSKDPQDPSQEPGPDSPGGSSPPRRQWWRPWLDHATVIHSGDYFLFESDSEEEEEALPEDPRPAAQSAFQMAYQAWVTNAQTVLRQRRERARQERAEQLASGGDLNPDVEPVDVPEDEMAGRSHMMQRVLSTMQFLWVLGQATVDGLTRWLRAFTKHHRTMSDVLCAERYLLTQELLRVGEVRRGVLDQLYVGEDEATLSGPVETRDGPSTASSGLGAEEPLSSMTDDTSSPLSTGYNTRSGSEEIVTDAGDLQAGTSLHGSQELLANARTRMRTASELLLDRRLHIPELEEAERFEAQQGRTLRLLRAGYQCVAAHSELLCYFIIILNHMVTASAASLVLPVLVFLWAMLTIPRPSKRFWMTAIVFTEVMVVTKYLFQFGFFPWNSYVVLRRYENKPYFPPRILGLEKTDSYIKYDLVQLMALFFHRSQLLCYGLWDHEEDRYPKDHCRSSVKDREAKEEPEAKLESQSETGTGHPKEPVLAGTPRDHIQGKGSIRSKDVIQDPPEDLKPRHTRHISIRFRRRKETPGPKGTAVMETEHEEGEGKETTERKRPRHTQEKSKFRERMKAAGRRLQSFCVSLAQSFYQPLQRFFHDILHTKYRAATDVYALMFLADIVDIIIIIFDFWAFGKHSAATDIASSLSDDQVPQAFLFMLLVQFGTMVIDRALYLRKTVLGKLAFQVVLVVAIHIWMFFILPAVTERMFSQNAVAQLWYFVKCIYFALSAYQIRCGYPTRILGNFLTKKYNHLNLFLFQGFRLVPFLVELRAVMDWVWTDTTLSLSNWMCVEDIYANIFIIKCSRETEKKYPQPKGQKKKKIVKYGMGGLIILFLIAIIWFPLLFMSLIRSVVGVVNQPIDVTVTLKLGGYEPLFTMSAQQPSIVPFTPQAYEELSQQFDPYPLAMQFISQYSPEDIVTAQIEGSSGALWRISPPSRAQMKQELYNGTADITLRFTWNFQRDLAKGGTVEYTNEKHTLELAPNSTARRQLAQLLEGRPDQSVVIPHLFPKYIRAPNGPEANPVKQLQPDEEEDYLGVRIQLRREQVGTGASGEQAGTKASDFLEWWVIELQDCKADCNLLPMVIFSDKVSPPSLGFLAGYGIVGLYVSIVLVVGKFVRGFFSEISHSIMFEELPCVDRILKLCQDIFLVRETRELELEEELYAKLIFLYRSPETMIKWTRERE
T3 sequence (E2JF22 whole entry R2351Q): as the sequence (E2JF22 whole entry G1994D) above, with D1994G, R2351Q counted along it
T1 sequence (E2JF22 whole entry E824V): as the sequence (E2JF22 whole entry G1994D) above, with E824V, D1994G counted along it
T2 sequence (E2JF22 whole entry): as the sequence (E2JF22 whole entry G1994D) above, with D1994G counted along it

EC50 [1]: 760 nM
EC50 [2]: 140 nM
Mean (Ca2+ signal time course, Figure 4f) ([3]; 0.3 µM, time 0 s): -0.00345
Mean (Ca2+ signal time course, Figure 4f) ([3]; 0.3 µM, time 5 s): -0.00122
Mean (Ca2+ signal time course, Figure 4f) ([3]; 0.3 µM, time 10 s): 0.01286
Mean (Ca2+ signal time course, Figure 4f) ([3]; 0.3 µM, time 15 s): 0.00659
Mean (Ca2+ signal time course, Figure 4f) ([3]; 0.3 µM, time 20 s): -0.0106
Mean (Ca2+ signal time course, Figure 4f) ([3]; 0.3 µM, time 25 s): -0.00417
Mean (Ca2+ signal time course, Figure 4f) ([3]; 0.3 µM, time 30 s): -0.1638
Mean (Ca2+ signal time course, Figure 4f) ([3]; 0.3 µM, time 35 s): -0.1525
Mean (Ca2+ signal time course, Figure 4f) ([3]; 0.3 µM, time 40 s): 0.1031
Mean (Ca2+ signal time course, Figure 4f) ([3]; 0.3 µM, time 45 s): 0.1823
Mean (Ca2+ signal time course, Figure 4f) ([3]; 0.3 µM, time 50 s): 0.2367
Mean (Ca2+ signal time course, Figure 4f) ([3]; 0.3 µM, time 55 s): 0.2605
Mean (Ca2+ signal time course, Figure 4f) ([3]; 0.3 µM, time 60 s): 0.2818
Mean (Ca2+ signal time course, Figure 4f) ([3]; 0.3 µM, time 65 s): 0.2859
Mean (Ca2+ signal time course, Figure 4f) ([3]; 0.3 µM, time 70 s): 0.3055
Mean (Ca2+ signal time course, Figure 4f) ([3]; 0.3 µM, time 75 s): 0.2731
Mean (Ca2+ signal time course, Figure 4f) ([3]; 0.3 µM, time 80 s): 0.2811
Mean (Ca2+ signal time course, Figure 4f) ([3]; 0.3 µM, time 85 s): 0.2788
Mean (Ca2+ signal time course, Figure 4f) ([3]; 0.3 µM, time 90 s): 0.2616
Mean (Ca2+ signal time course, Figure 4f) ([3]; 0.3 µM, time 95 s): 0.2726
Mean (Ca2+ signal time course, Figure 4f) ([3]; 0.3 µM, time 100 s): 0.2623
Mean (Ca2+ signal time course, Figure 4f) ([3]; 0.3 µM, time 105 s): 0.2451
Mean (Ca2+ signal time course, Figure 4f) ([3]; 0.3 µM, time 110 s): 0.2677
Mean (Ca2+ signal time course, Figure 4f) ([3]; 0.3 µM, time 115 s): 0.2432
Mean (Ca2+ signal time course, Figure 4f) ([3]; 0.3 µM, time 120 s): 0.2668
Mean (Ca2+ signal time course, Figure 4f) ([3]; 0.3 µM, time 125 s): 0.2392
Mean (Ca2+ signal time course, Figure 4f) ([3]; 0.3 µM, time 130 s): 0.2157
Mean (Ca2+ signal time course, Figure 4f) ([3]; 3 µM, time 0 s): -0.0127
Mean (Ca2+ signal time course, Figure 4f) ([3]; 3 µM, time 5 s): -0.01559
Mean (Ca2+ signal time course, Figure 4f) ([3]; 3 µM, time 10 s): 0.01198
Mean (Ca2+ signal time course, Figure 4f) ([3]; 3 µM, time 15 s): 0.01352
Mean (Ca2+ signal time course, Figure 4f) ([3]; 3 µM, time 20 s): 7.66E-04
Mean (Ca2+ signal time course, Figure 4f) ([3]; 3 µM, time 25 s): 0.00202
Mean (Ca2+ signal time course, Figure 4f) ([3]; 3 µM, time 30 s): -0.4931
Mean (Ca2+ signal time course, Figure 4f) ([3]; 3 µM, time 35 s): -0.08324
Mean (Ca2+ signal time course, Figure 4f) ([3]; 3 µM, time 40 s): 0.5902
Mean (Ca2+ signal time course, Figure 4f) ([3]; 3 µM, time 45 s): 0.919
Mean (Ca2+ signal time course, Figure 4f) ([3]; 3 µM, time 50 s): 1.153
Mean (Ca2+ signal time course, Figure 4f) ([3]; 3 µM, time 55 s): 1.288
Mean (Ca2+ signal time course, Figure 4f) ([3]; 3 µM, time 60 s): 1.4
Mean (Ca2+ signal time course, Figure 4f) ([3]; 3 µM, time 65 s): 1.461
Mean (Ca2+ signal time course, Figure 4f) ([3]; 3 µM, time 70 s): 1.455
Mean (Ca2+ signal time course, Figure 4f) ([3]; 3 µM, time 75 s): 1.399
Mean (Ca2+ signal time course, Figure 4f) ([3]; 3 µM, time 80 s): 1.41
Mean (Ca2+ signal time course, Figure 4f) ([3]; 3 µM, time 85 s): 1.397
Mean (Ca2+ signal time course, Figure 4f) ([3]; 3 µM, time 90 s): 1.327
Mean (Ca2+ signal time course, Figure 4f) ([3]; 3 µM, time 95 s): 1.295
Mean (Ca2+ signal time course, Figure 4f) ([3]; 3 µM, time 100 s): 1.247
Mean (Ca2+ signal time course, Figure 4f) ([3]; 3 µM, time 105 s): 1.236
Mean (Ca2+ signal time course, Figure 4f) ([3]; 3 µM, time 110 s): 1.129
Mean (Ca2+ signal time course, Figure 4f) ([3]; 3 µM, time 115 s): 1.087
Mean (Ca2+ signal time course, Figure 4f) ([3]; 3 µM, time 120 s): 1.099
Mean (Ca2+ signal time course, Figure 4f) ([3]; 3 µM, time 125 s): 1.0906
Mean (Ca2+ signal time course, Figure 4f) ([3]; 3 µM, time 130 s): 0.9817
Mean (concentration-response, Figure 4g) ([3]; Yoda2b concentration 0.01 µM): 6.31E-04
Mean (concentration-response, Figure 4g) ([3]; Yoda2b concentration 0.03 µM): 0.01052
Mean (concentration-response, Figure 4g) ([3]; Yoda2b concentration 0.1 µM): 0.03752
Mean (concentration-response, Figure 4g) ([3]; Yoda2b concentration 0.3 µM): 0.1939
Mean (concentration-response, Figure 4g) ([3]; Yoda2b concentration 1 µM): 0.4898
Mean (concentration-response, Figure 4g) ([3]; Yoda2b concentration 3 µM): 0.7217
Mean (concentration-response, Figure 4g) ([3]; Yoda2b concentration 10 µM): 0.9598
channel activation compared with Yoda1 ([3]; side-by-side, same 96-well plate): more potently activated by Yoda2b
EC50 ([4]; 1.5 min exposure): 1000 nM
Mean (concentration-response, Figure 5g) ([4]; Yoda2b concentration 0.01 µM): -0.02242
Mean (concentration-response, Figure 5g) ([4]; Yoda2b concentration 0.03 µM): 0.00849
Mean (concentration-response, Figure 5g) ([4]; Yoda2b concentration 0.1 µM): 0.01915
Mean (concentration-response, Figure 5g) ([4]; Yoda2b concentration 0.3 µM): 0.1358
Mean (concentration-response, Figure 5g) ([4]; Yoda2b concentration 1 µM): 0.5075
Mean (concentration-response, Figure 5g) ([4]; Yoda2b concentration 3 µM): 0.8675
Mean (concentration-response, Figure 5g) ([4]; Yoda2b concentration 10 µM): 1
Compound: O=C(O)c1ccc(-c2cnc(SCc3c(Cl)cccc3Cl)s2)cc1 [Yoda2b, 4-(2-([(2,6-Dichlorophenyl)methyl]sulfanyl)-1,3-thiazol-5-yl)benzoic acid]

Reference: paper PMC12337661, “PIEZO1 mechanical insensitivity in generalized lymphatic dysplasia with the potential for pharmacological rescue” (iScience, 2025)
